# Values joined by “and” are separate entries in the source; they are usually repeats but may differ in a detail not shown here. Equal values may be shown once.
# How the values were obtained:
# human GIPR = target: T1, human GIPR (Homo sapiens, UniProt P48546); assay: cAMP assay (HitHunter cAMP) in GIPR-expressing CHO-K1 cells (GIPR+ cells); assay type: cell-based; settings: for Activity relative to STD peptide (%), GIP: Table 13, EC50 of STD peptide over EC50 of peptide; for Activity relative to GLP-1 (%), GIP: Table 14
# T1 construct: host or cells: CHO-K1
# T1 sequence (P48546 22-466): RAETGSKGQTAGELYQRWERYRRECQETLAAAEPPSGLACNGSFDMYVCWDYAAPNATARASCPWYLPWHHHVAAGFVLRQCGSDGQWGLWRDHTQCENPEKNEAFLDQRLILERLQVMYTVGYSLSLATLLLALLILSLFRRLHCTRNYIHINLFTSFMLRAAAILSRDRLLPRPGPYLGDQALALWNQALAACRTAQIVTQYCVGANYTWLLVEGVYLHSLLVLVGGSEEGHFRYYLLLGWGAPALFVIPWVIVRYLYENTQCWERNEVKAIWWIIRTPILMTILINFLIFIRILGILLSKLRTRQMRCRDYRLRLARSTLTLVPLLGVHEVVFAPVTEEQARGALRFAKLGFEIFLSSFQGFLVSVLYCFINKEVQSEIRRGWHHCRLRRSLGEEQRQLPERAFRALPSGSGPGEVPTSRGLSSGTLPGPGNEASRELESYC
# Experimental: (§1) The cells were seeded in a 96-well plate at 7×10^3 cells/well using cell plate reagent and incubated the cells overnight at 37° C. and 5% CO2. To perform the cAMP detection assay, cell plating reagent were replaced with the cAMP Assay buffer. Each of the wells was then treated with the diluted peptide and incubated for 30 minutes under conditions of a temperature of 37° C. in a CO2 incubator.
# (§2) After the incubation, cAMP Antibody reagent and Working cAMP detection solution to all wells. Incubate the plate for 1 hour at Room temperature in the dark. Then, cAMP Solution A was added and incubated for 3 hours at room temperature in the dark. Subsequently, the luminescence was measured using the microplate reader device.
# [1] = Body weight loss in normal C57BL/6 mice, subcutaneous dosing; assay type: in vivo; settings: for Weight loss (%): normal mice, after 48 or 72 hours
# Experimental: To confirm the therapeutic effect of the peptide in vivo, polypeptides were administered to mice to measure changes in body weight. […] The peptides were delivered at 0.02% polysorbate 80 (PS80) in PBS and dosing volume was 10 mL/kg. Body weight was monitored 6 h, QD.
# To confirm the therapeutic effect of the peptide in obesity, diabetes, or NASH, polypeptides were administered to mice to measure changes in food intake, blood glucose and body weight. […] In addition, a NASH animal model was prepared by feeding a high fat, high fructose, high cholesterol diet to normal C57BL/6 mice (approximately 6 weeks old) for approximately 21 weeks, and increasing the body weights of the mice to approximately 50 g on average. Thereafter, polypeptides were administered by subcutaneous injection at dose of 20 nmol/kg once every other day for 2 weeks. Body weight and food intake were measured once every other day given points of time. After 2 weeks of treatment period, mice were sacrificed, then liver weight, hepatic triglyceride, and NASH related biomarkers were measured.
# DD01 administered at 40 nmol/kg, s.c. Q2D as positive control was delivered at 0.02% PS80 in PBS and dosing volume was 10 mL/kg. Body weight was monitored QD for 4 days.
# The peptides were delivered at 0.02% PS80 in PBS and dosing volume was 10 mL/kg. Food intake, blood glucose, and body weight changes were monitored QD.
# human GLP-1R = target: T2, human GLP-1R (Homo sapiens, UniProt P43220); assay: cAMP assay (HitHunter cAMP) in GLP-1R-expressing CHO-K1 cells (GLP-1R+ cells); assay type: cell-based; settings: for Activity relative to STD peptide (%), GLP-1: Table 13, EC50 of STD peptide over EC50 of peptide; for Activity relative to GLP-1 (%), GLP-1: Table 14
# T2 construct: host or cells: CHO-K1
# T2 sequence (P43220 24-463): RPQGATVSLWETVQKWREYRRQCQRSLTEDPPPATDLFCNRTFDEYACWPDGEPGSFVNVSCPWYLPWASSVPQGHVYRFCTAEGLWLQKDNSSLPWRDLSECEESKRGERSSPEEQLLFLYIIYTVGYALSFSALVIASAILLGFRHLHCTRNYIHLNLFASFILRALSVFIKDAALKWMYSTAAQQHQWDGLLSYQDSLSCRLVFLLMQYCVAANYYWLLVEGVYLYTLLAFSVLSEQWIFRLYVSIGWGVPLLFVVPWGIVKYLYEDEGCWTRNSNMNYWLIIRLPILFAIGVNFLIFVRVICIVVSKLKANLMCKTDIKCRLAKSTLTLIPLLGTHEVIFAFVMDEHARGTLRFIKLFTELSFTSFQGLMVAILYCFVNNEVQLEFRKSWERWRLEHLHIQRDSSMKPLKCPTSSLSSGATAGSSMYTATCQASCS
# Experimental: as §1, §2
# human GCGR = target: T3, human GCGR (Homo sapiens, UniProt P47871); assay: cAMP assay (HitHunter cAMP) in GCGR-expressing CHO-K1 cells (GCGR+ cells); assay type: cell-based; settings: for Activity relative to STD peptide (%), Glucagon: Table 13, EC50 of STD peptide over EC50 of peptide; for Activity relative to GLP-1 (%), Glucagon: Table 14
# T3 construct: host or cells: CHO-K1
# T3 sequence (P47871 26-477): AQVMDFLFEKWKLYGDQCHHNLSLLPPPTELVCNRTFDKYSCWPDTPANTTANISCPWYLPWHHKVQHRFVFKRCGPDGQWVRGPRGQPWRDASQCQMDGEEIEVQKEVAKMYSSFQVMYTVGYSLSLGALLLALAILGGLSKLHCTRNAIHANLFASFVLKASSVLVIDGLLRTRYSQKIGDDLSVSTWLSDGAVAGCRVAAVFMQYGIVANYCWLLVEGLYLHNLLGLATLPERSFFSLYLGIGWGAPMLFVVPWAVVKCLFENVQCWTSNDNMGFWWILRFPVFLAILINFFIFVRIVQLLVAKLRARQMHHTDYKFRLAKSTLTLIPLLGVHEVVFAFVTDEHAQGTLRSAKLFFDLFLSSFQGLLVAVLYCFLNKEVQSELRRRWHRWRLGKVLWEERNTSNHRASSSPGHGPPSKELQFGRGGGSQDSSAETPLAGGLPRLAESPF
# Experimental: as §1, §2
# [2] = normalised to activity at GLP-1R
# [3] = Table 19, normalised to activity at GLP-1R
# [4] = Table 24, ratio of EC50 of native ligand over peptide
compound,measurement,setting,value
"CC[C@H](C)[C@H](NC(=O)[C@H](CC(C)C)NC(=O)[C@H](Cc1c[nH]c2ccccc12)NC(=O)[C@H](CCC(N)=O)NC(=O)[C@@H](NC(=O)[C@H](Cc1ccccc1)NC(=O)[C@H](CC(=O)O)NC(=O)[C@H](CCCNC(=N)N)NC(=O)[C@H](C)NC(=O)[C@H](CCSC)NC(=O)[C@H](CCSC)NC(=O)[C@H](Cc1ccc(O)cc1)NC(=O)[C@H](CC(=O)O)NC(=O)[C@H](CC(C)C)NC(=O)[C@H](Cc1ccc(O)cc1)NC(=O)[C@H](CCCCNC(=O)COCCOCCNC(=O)COCCOCCNC(=O)CC[C@H](NC(=O)CCCCCCCCCCCCCCCCC(=O)O)C(=O)O)NC(=O)[C@H](CO)NC(=O)[C@H](Cc1ccc(O)cc1)NC(=O)[C@H](CC(=O)O)NC(=O)[C@H](CO)NC(=O)[C@@H](NC(=O)[C@H](Cc1ccccc1)NC(=O)[C@@H](NC(=O)CNC(=O)[C@H](CCC(N)=O)NC(=O)C(C)(C)NC(=O)[C@@H](N)Cc1c[nH]cn1)[C@@H](C)O)[C@@H](C)O)C(C)C)C(=O)N[C@@H](CCC(=O)O)C(=O)NCC(=O)NCC(=O)N1CCC[C@H]1C(=O)N[C@@H](CO)C(=O)N[C@@H](CO)C(=O)NCC(=O)N[C@@H](C)C(=O)N1CCC[C@H]1C(=O)N1CCC[C@H]1C(=O)N1CCC[C@H]1C(=O)N[C@@H](CO)C(=O)N[C@@H](CSC1CC(=O)N(CCCCCC(=O)NNC(=O)CCCC[C@@H]2SC[C@@H]3NC(=O)N[C@@H]32)C1=O)C(N)=O (stereo partly shown) [5C, HAibQGT FTSDY SK*YLD YMMAR DFVQW LIEGG PSSGA PPPSB#]","Activity relative to STD peptide (%), GIP",human GIPR,8%
same,"Activity relative to GLP-1 (%), GIP",human GIPR; [2],4%
same,Weight loss (%),[1]; 10 nmol/kg QD,9.6 ± 1.0%
same,Weight loss (%),[1]; 20 nmol/kg QD,14.1 ± 1.9%
same,"Activity relative to STD peptide (%), GLP-1",human GLP-1R,202%
same,"Activity relative to GLP-1 (%), GLP-1",human GLP-1R; [2],100%
same,"Activity relative to STD peptide (%), Glucagon",human GCGR,23%
same,"Activity relative to GLP-1 (%), Glucagon",human GCGR; [2],12%
CC[C@H](C)[C@H](NC(=O)[C@H](CC(C)C)NC(=O)[C@H](Cc1c[nH]c2ccccc12)NC(=O)[C@H](CCC(N)=O)NC(=O)[C@@H](NC(=O)[C@H](Cc1ccccc1)NC(=O)[C@H](CC(=O)O)NC(=O)[C@H](CCCNC(=N)N)NC(=O)[C@H](C)NC(=O)[C@H](CCSC)NC(=O)[C@H](CCSC)NC(=O)[C@H](Cc1ccc(O)cc1)NC(=O)[C@H](CC(=O)O)NC(=O)[C@H](CC(C)C)NC(=O)[C@H](Cc1ccc(O)cc1)NC(=O)[C@H](CCCCN)NC(=O)[C@H](CO)NC(=O)[C@H](Cc1ccc(O)cc1)NC(=O)[C@H](CC(=O)O)NC(=O)[C@H](CO)NC(=O)[C@@H](NC(=O)[C@H](Cc1ccccc1)NC(=O)[C@@H](NC(=O)CNC(=O)[C@H](CCC(N)=O)NC(=O)C(C)(C)NC(=O)[C@@H](N)Cc1c[nH]cn1)[C@@H](C)O)[C@@H](C)O)C(C)C)C(=O)N[C@@H](CCC(=O)O)C(=O)NCC(=O)NCC(=O)N1CCC[C@H]1C(=O)N[C@@H](CO)C(=O)N[C@@H](CO)C(=O)NCC(=O)N[C@@H](C)C(=O)N1CCC[C@H]1C(=O)N1CCC[C@H]1C(=O)N1CCC[C@H]1C(=O)N[C@@H](CO)C(=O)N[C@@H](CSC1CC(=O)N(CCNC(=O)COCCOCCNC(=O)COCCOCCNC(=O)CC[C@H](NC(=O)CCCCCCCCCCCCCCCCC(=O)O)C(=O)O)C1=O)C(N)=O (stereo partly shown) [5A],Percentage change in EC50 relative to GIP at human GIPR (%),"human GIPR; Table 11, lipidated (A type) peptides",5%
same,"Activity relative to STD peptide (%), GIP",human GIPR,1%
same,"Activity relative to GLP-1 (%), GIP",human GIPR; [2],2%
same,"Activity relative to STD peptide (%), GIPR",human GIPR; Table 18,0%
same,"Activity relative to GLP-1 (%), GIPR",human GIPR; [3],0%
same,"Relative % to native ligand, GIPR",human GIPR; [4],5%
same,"Ratio vs. GLP-1R, GIPR",human GIPR; Table 25,2
same,"Relative % to non-lipidated peptide, GIPR",human GIPR; Table 26,167%
same,"body weight loss (BWL), in words","[1]; Example 3, 20 nmol/kg QD or 30 nmol/kg Q2D s.c., 4 days",Superior body weight loss
same,"body weight loss effect, in words","[1]; Example 5, 20 nmol/kg s.c. QD, 4 days",Superior body weight loss effects
same,Weight loss (%),[1]; 10 nmol/kg QD,15.7 ± 2.2%
same,Weight loss (%),[1]; 20 nmol/kg QD,20.1 ± 1.3% and 18.8 ± 0.9% and 19.3 ± 1.9% and 22.9 ± 1.5%
same,Weight loss (%),[1]; 30 nmol/kg Q2D,14.6 ± 1.8%
same,Percentage change in EC50 relative to GLP-1 at human GLP-1R (%),"human GLP-1R; Table 9, lipidated (A type) peptides",201%
same,"Activity relative to STD peptide (%), GLP-1",human GLP-1R,84%
same,"Activity relative to GLP-1 (%), GLP-1",human GLP-1R; [2],100%
same,"Activity relative to STD peptide (%), GLP-1R",human GLP-1R; Table 18,520%
same,"Activity relative to GLP-1 (%), GLP-1R",human GLP-1R; [3],100%
same,"Relative % to native ligand, GLP-1R",human GLP-1R; [4],201%
same,"Ratio vs. GLP-1R, GLP-1R",human GLP-1R; Table 25,100
same,"Relative % to non-lipidated peptide, GLP-1R",human GLP-1R; Table 26,33%
same,Percentage change in EC50 relative to GCG at human GCGR (%),"human GCGR; Table 10, lipidated (A type) peptides",14%
same,"Activity relative to STD peptide (%), Glucagon",human GCGR,8%
same,"Activity relative to GLP-1 (%), Glucagon",human GCGR; [2],10%
same,"Activity relative to STD peptide (%), GCGR",human GCGR; Table 18,8%
same,"Activity relative to GLP-1 (%), GCGR",human GCGR; [3],2%
same,"Relative % to native ligand, GCGR",human GCGR; [4],14%
same,"Ratio vs. GLP-1R, GCGR",human GCGR; Table 25,7
same,"Relative % to non-lipidated peptide, GCGR",human GCGR; Table 26,2%

# Source: patent US20250296960A1, “PEPTIDE COMPOSITIONS AND METHODS OF USE THEREOF” (priority 2022, published 2025)
